A short description of series [1]: Solubility of silymarin components in water (Example 10, HPLC). Type of series: physicochemical. To be noted: water. As to the method:
(§1) Silymarin components including taxifolin, silydianin, silychristin, silybin A, silybin B, isosilybin A, and isosilybin B were tested for their solubility in water and also for their Log D value. The silymarin extract was obtained from Indena® (Indena Code: 9065110). The HPLC system consisted of Waters system equipped with performance PLUS inline degasser along dual λ absorbance detector set at 288 nm. The chromatographic separation of silymarin constituents was achieved on a Symmetry Shield RP18 column (150×4.6 mm, 5 μm); which was maintained at ambient room temperature conditions. The binary mobile phase system consisted of reservoir A (methanol: 10 mM ammonium acetate pH 5 [65:35 v/v]) and reservoir B (10 mM ammonium acetate, pH 5) were run as per gradient program (0-1.9 min: 25% A and 75% B; 2.0-14.9 min: 80% A and 20% B and 15-37.9 min: 80% A and 20% B and 38-40 min: 25% A and 75% B). The flow rate was 1 mL/min throughout the analytical run.

Series [2] is described as follows: Silymarin solubility in water, CAPTISOL® solution and γ-cyclodextrin solution (Example 2, HPLC). Type of series: physicochemical. To be noted: water, thermodynamic from solid, Solubility (mg/ml) of components of silymarin. On the procedure: The solutions were centrifuged for 10 min at 13K rpm. An aliquot of the supernatant was diluted 1:5 for Water, 1:25 for γ-Cyclodextrin and 1:100 for both 0.20 M CAPTISOL® and 0.20M HP-B-Cyclodextrin using MeOH as the diluent. The standard reference was prepared by dissolving silymarin in 10 mg/mL of DMSO and then diluted to 0.50 mg/mL using MeOH.
The change of the saturated solubility of the various components of silymarin in each of the four types of samples can be seen in FIG. 4.
The data shown in Table 6 is plotted in FIGS. 5 and 6. The change of the solubility of the various components of silymarin in each of the three samples can be seen in FIG. 5. The total mutual saturated solubility of all flavonolignan components can be seen in FIG. 6. […] The various components of silymarin also have increased solubility in the CAPTISOL® (0.2M) sample.

Series [3] can be described thus: Log D of silymarin components (octanol/buffer, HPLC). Type of series: physicochemical. To be noted: pH 7.4. As to the method:
as §1
To determine the Log D of silymarin components, the silymarin extract (2 mg) was dissolved in 100% DMSO and then used for the experiment. Different buffers between pH ranges of 1.0 to 12 were prepared by using universal buffer stock containing 25 mM hydrochloric acid, 25 mM citric acid, 25 mM phosphoric acid, 30 mM boric acid and 20 mM sodium chloride. About 45 mL of universal buffer was titrated with Sodium hydroxide (5M) to obtain desired pH. A 10 μL of silymarin stock solution was spiked into Eppendorf tube containing 500 μL each of a buffer and presaturated octanol. This mixture was vortexed for 5 minutes and kept for shaking at room temperature. After 16 h, the mixture was centrifuged at 10,000 RPM for 30 minutes. After centrifugation buffer and octanol phases were separated, both phases were diluted with acetonitrile (1:1) and subject to HPLC analysis for quantitation of individual components of silymarin. The Log D values of each compound at a pH was determined by Log D (pH)=Log [Organic (peak area)/Aqueous (peak area)].

Another series in a line: physchem. To be noted: 25 °C, water, thermodynamic from solid, Solubility (mg/ml) of flavonolignan components of silymarin.
Series [4] is described as follows: Pharmacokinetic study in rat. Type of series: in vivo. Conditions: in vivo; for AUC(0-t): AUC(0-2 h) (ng · h/mL); for Cmax: Cmax (ng/mL). On the procedure: The Silymarin-CAPTISOL® complex was administered to rat to test its pharmacokinetic properties.
On arrival rats were housed individually in cages at animal care facility in a temperature and humidity controlled room with a 12 h:12 h (light:dark) cycles. The rats were provided with free access to food and water for one week before using for experimental purpose. The 12 rats were equally divided into three groups—Group I: silymarin-CAPTISOL® complex with a CAPTISOL® concentration of 100 mM for oral administration; Group II: silymarin suspension (Control); and Group III: silymarin complex with a CAPTISOL® concentration of 100 mM for intravenous administration. The animals were fasted overnight with free access to water. On the day of experiment, the rat was removed from animal care facility and brought to the procedure lab. The animal was weighed and appropriate dosing volume was determined. For oral administration, rat's head was held in place by gently extending the head back and supporting the lower body. The gavage tube was placed in the mouth and advanced along the lower palate till the esophagus, and the silymarin was administered through the tube. For intravenous administration, the silymarin-CAPTISOL® complex was administered by slow bolus intravenous injection into the tail vein. Approximately 200 μL blood was drawn into heparin coated tubes at pre dose, 0.15, 0.5, 1, 2, 4, 8, 10 and 24 h for oral group II and for intravenous group III. The sampling time points were predose, 0.12, 0.25, 0.5, 1, 2, 4, 8 and 24 h through the jugular vein catheter. Plasma was harvested by centrifuging the blood at 4000 RPM for 5 min and stored frozen at −80±10° C. until analysis.
Stored plasma was thawed just before performing the silymarin components analysis. 200 μL of acetonitrile containing 0.1% of ammonia was added to 50 μL of plasma, and this mixture was vortexed for 5 min and centrifuged at 4° C. for 5 min at 10,000 RPM. After centrifugation, the supernatant was separated and injected into HPLC for analysis of silymarin constituents taxifolin, silydianin, silychristin, silybin A, silybin B, isosilybin A and isosilybin B.
The plasma concentration-time curves of silybin A, silybin B, isosilybin A, and isosilybin B in the Silymarin-CAPTISOL® sample of Group I and the control sample (silymarin suspension) are respectively shown in FIGS. 20A to 20D.

Series [5] is described as follows: Silymarin saturated solubility with CAPTISOL® (Example 1, HPLC). To be noted: for solubility: 25 °C, thermodynamic from solid, Solubility (mg/ml) of flavonolignan components of silymarin, saturated with excess silymarin.
Method: (§2) CAPTISOL® was dissolved in water to form four solutions with a CAPTISOL® concentration of 0.05 mol/L, 0.1 mol/L, 0.2 mol/L, and 0.3 mol/L respectively. 12 mg of silymarin powder (Sigma Aldrich) was added to 1 mL of each of the four CAPTISOL® solutions on Day 1, another 12 mg Silymarin powder was added on Day 3, and 19-22 mg Silymarin powder was added on Day 7 to ensure that silymarin reached its maximum solubility in each solution. The solutions were stirred in a water bath at 25° C. The solutions were then centrifuged prior to sampling. The supernatant was diluted in MeOH in preparation for HPLC assay.
(§3) A reference standard was prepared by mixing silymarin with methanol to provide a methanol solution with a silymarin concentration of 0.1 mg/ml.
(§4) HPLC was used to measure the relative concentrations of the different components of silymarin in each sample solution following the method described in Kuki et al., (2012) Chromatogram 75:175-180. The relative concentration of each component of silymarin was measured by comparing the normalized peak area units with that of the standard reference measured by the UV data at 288 nm and assuming equivalent extinction coefficients for all components.
(§5) The relative molar amounts of the ten flavonolignan components of silymarin were calculated by dividing the normalized peak area of each component in a sample by the total normalized peak area of the sample.
(§6) The concentration of each flavonolignan component of silymarin was calculated from the peak areas in Tables 1a and 1b and the total concentration of silymarin (0.1 mg/ml) in the reference sample, assuming constant extinction coefficients for each component.

We go through three molecules from patent US10702568B2, “Compositions containing silymarin and sulfoalkyl ether cyclodextrin and methods of using the same” (UNIVERSITY OF KANSAS, priority 2015, dated 2020).

Values after ≈ are worked out from the molar mass of the structure shown.

Method for physchem: as §2, §3, §4, §5, §6

In general, solubility refers to the dissolved amount per volume that the medium holds. High values mean a readily soluble substance, low ones a poorly soluble substance. Broadly, the logD is lipophilicity at a set pH, counting ionised and neutral species. What is called AUC(0-t) is exposure summed from dosing to a finite time, without extrapolation to infinity. A higher AUC(0-t) goes with more exposure. One may read the Cmax as the maximum level reached in the sampled fluid or tissue. The term Tmax denotes the time from dosing to the highest level. For `COc1cc([C@H]2Oc3ccc([C@H]4Oc5cc(O)cc(O)c5C(=O)[C@@H]4O)cc3O[C@@H]2CO)ccc1O` [Isosilybin A], the concentration in solution in series [1] (solubility) came to 18.8 µg/mL (≈ 39 µM). The same molecule displayed a solubility in series [2] of 40 µg/mL (≈ 82.9 µM). This molecule also showed a logD at 16 h in series [3] of 2.47. Moreover, the solubility in “physchem” was 40 µg/mL (≈ 82.9 µM). In series [4] (iv), this molecule had an AUC(0-t) of 1970 ng·h/mL and a Cmax of 4160 ng/mL. In series [4] (iv, Tmax (h)), the time to peak (Tmax) worked out at 4.2 min. Moreover, in series [4] (po), the “% Fabs of silymarin-CAPTISOL® complex compared with silymarin alone” value is listed as “higher % Fabs”, the “AUC of Silymarin-CAPTISOL® complex compared with the control sample” value was “higher AUC”, the “AUC(0-2 h)” value was 150 ng·h/mL and the “Cmax of Silymarin-CAPTISOL® complex compared with the control sample” value is recorded as “higher Cmax”. Further, the Tmax in series [4] (po, Tmax (h)) is 30 min.

As to `COc1cc([C@@H]2Oc3cc([C@H]4Oc5cc(O)cc(O)c5C(=O)[C@@H]4O)ccc3O[C@H]2CO)ccc1O` [Silybin B], the solubility in series [1] worked out at 21.9 µg/mL (≈ 45.4 µM); in series [2], 30 µg/mL (≈ 62.2 µM); in series [5] (0.05 M CAPTISOL in water, aqueous with cosolvent or surfactant or cyclodextrin, CAPTISOL® (0.05M) in water) it was 5590 µg/mL (≈ 11600 µM); in series [5] (0.1 M CAPTISOL in water, aqueous with cosolvent or surfactant or cyclodextrin, CAPTISOL® (0.1M) in water), 8930 µg/mL (≈ 18500 µM); in series [5] (0.2 M CAPTISOL in water, aqueous with cosolvent or surfactant or cyclodextrin, CAPTISOL® (0.2M) in water), 13800 µg/mL (≈ 28600 µM); in series [5] (0.3 M CAPTISOL in water, aqueous with cosolvent or surfactant or cyclodextrin, CAPTISOL® (0.3M) in water), 15800 µg/mL (≈ 32600 µM). For the same molecule, the solubility in series [5] (water, H2O) came out at 50 µg/mL (≈ 104 µM). This molecule also showed a logD at 16 h in series [3] of 1.99. The area under the curve AUC(0-t) in series [4] (iv) turned out to be 5070 ng·h/mL. This molecule also came in with a Cmax in series [4] (iv) of 12700 ng/mL. The Tmax in series [4] (iv, Tmax (h)) was 7.2 min; in series [4] (po), 37.8 min; in series [4] (po, Tmax (h)) it was 30 min. The “AUC(0-2 h)” value in series [4] (po) stood at 395 ng·h/mL. In addition, the “Percentages of flavonolignan components of silymarin in the sample” value in series [5] (CAPTISOL® (0.05M), saturated solubility) is 24.01%; in series [5] (CAPTISOL® (0.1M), saturated solubility), 23.18%; in series [5] (CAPTISOL® (0.2M), saturated solubility) it was 20.90%; in series [5] (CAPTISOL® (0.3M), saturated solubility), 21.96%; in series [5] (H2O, saturated solubility, share of total normalized peak area), 7.72%; in series [5] (H2O, saturated solubility, share of total normalized peak area, listed as silybin B), “about 7.72%”. For the same molecule, the “Percentages of flavonolignan components of silymarin in the sample” value in series [5] (MeOH standard (0.1 mg/ml), reference, share of total normalized peak area) is reported as 32.00%.

Regarding `COc1cc([C@@H]2[C@H]3CO[C@@]4(O)C(=O)[C@@H]2C=C([C@H]2Oc5cc(O)cc(O)c5C(=O)[C@@H]2O)[C@@H]34)ccc1O` [Silydianin], the solubility in series [1] came out at 232 µg/mL (≈ 481 µM); in series [2], 120 µg/mL (≈ 249 µM); in the series “physchem”, 70 µg/mL (≈ 145 µM). The logD at 16 h in series [3] worked out at 1.64.
